Measurements: patent US5646308A, “Benzopyran derivatives” (Chugai Seiyaku Kabushiki Kaisha, priority 1992, dated 1997)

Key:
[1] = tested on: Rat Aorta; experiment: Test with Excised Aorta of Rat: relaxation of lasting KCl-induced contraction; parameters: species or system male Sprague Dawley rat; conditions: rat thoracic aorta rings, 30 mM KCl contraction, Krebs-Henseleit, 37° C., tension 2 g; read-out: IC50 (50% inhibitory concentration, relaxation of lasting contraction following KCl addition), Rat Aorta
Experimental: Test with Excised Aorta of Rat
The thoracic aorta was excised from a male Sprague Dawley rat (450 to 600 g) and cut into 2 mm wide ring preparations. Each preparation was suspended in 10 ml of an organ bath containing a Krebs-Henseleit solution (NaCl: 119; KCl: 4.8; CaCl2 ·2H2 O: 2.53; KH2 PO4 : 1.2; MgSO4 ·7H2 O: 1.2; NaHCO3 : 24.8; glucose: 10 (mM); 37° C.) under a tension of 2 g, and a mixed gas of 95% O2 and 5% CO2 was bubbled therethrough. Isometric contractions of the preparation were recorded by means of an FD pick-up. […] The activity of a test compound to relax a lasting contraction following the KCl addition was evaluated by obtaining a 50% inhibitory concentration (IC50).
The compounds of the present invention obtained in the foregoing Examples and, for comparison, Cromakalim were used as test compounds.

[2] = tested on: Guinea Pig Tracheal Muscle; experiment: Test with Guinea Pig Tracheal Muscle: relaxing activity on spontaneous tension; parameters: species or system male Hartley guinea pig; conditions: Cavia porcellus, relaxation by 1 mM aminophylline = 100%, 37° C., tension 1 g, read-out: IC50 (concentration exhibiting 50% relaxing activity), Guinea Pig Tracheal Muscle
Experimental: Test with Guinea Pig Tracheal Muscle
The trachea was excised from a male Hartley guinea pig (450 to 550 g) to make chain preparations. The preparation was suspended In a bath containing the same Krebs-henseleit solution as used in Test Example 1 (37° C.) through which a mixed gas of 95% O2 and 5% CO2 was bubbled. Isometric contractions of the preparation were recorded under a tension of 1 g.
The same test compounds as used in Test Example 1 were used.

[3] = tested on: histamine-induced increase in respiratory tract inner pressure; experiment: Study on Antiasthmatic Activity: inhibition of histamine-induced increase in respiratory tract inner pressure; type: in vivo, male hartley guinea pig; conditions: Cavia porcellus, 10 min; anesthetized guinea pig, intraduodenal, 0.3% CMC suspension; histamine 5 to 10 μg/kg i.v. every 10 minutes; read-out: ED50 (dose for 50% inhibition of the histamine-induced increase in respiratory tract inner pressure)
Experimental: Study on Antiasthmatic Activity
A mid-line incision was made in the neck of a male hartley guinea pig (600 to 800 g, CRJ) under anesthesia with […] (40 mg/kg, i.p.). The trachea, the […], and the left carotid artery were exposed, and a cannula was inserted into each of them. The inner pressure of the respiratory tract was measured while applying artificial respiration through the tracheal cannula. The blood pressure was measured through the arterial cannula, and the heart rate was determined from the pulse. Pentobarbital for anesthesia maintenance was continuously administered through the venous cannula. A mid-line incision was made on the abdomen to expose the duodenum, and a canuula for intraduodenal administration was inserted thereinto. After the postoperative convalescene of 30 to 60 minutes, histamine (5 to 10 μg/kg) was intravenously administered every 10 minutes. After it was confirmed that a respiratory tract inner pressure rise reaction was stably obtained, a test compound in the form of a 0.3% CMC suspension was intraduodenally administered. The histamine dose was so selected that the respiratory tract inner pressure might rise to 20 to 40 cmH2 O after every intravenous administration. After administration of the test compound, intrvenous administration of histamine at 10 minutes intervals was continued. The histamine-induced increase in respiratory tract inner pressure after the administration of the test compound was compared with that before the administration.

IC50 [1] | IC50 [2] | SMILES | ED50 [3]
180 nM | 790 nM | CC1(C)Oc2ccc(C#N)cc2[C@@H](N2CCCC2=O)[C@@H]1O (relative stereo) [Cromakalim, reference compound] | 1 to 3 mg/kg
59 nM | 86 nM | CNC(=O)C1=CC(C)(COC)Oc2ccc([N+](=O)[O-])cc21 (stereo not shown) [1(2), 2-methoxymethyl-N,2-dimethyl-6-nitro-2H-1-benzopyran-4-carboxamide] | 0.1 mg/kg
17 nM | 29 nM | CNC(=S)C1=CC(C)(COC)Oc2ccc([N+](=O)[O-])cc21 (stereo not shown) [Example 2, 2-Methoxymethyl-N,2-dimethyl-6-nitro-2H-1-benzopyran-4-carbothioamide] | 
97 nM | 260 nM | CN=C(NC#N)C1=CC(C)(COC)Oc2ccc([N+](=O)[O-])cc21 (stereo not shown) [Example 3, N-Cyano-2-methoxymethyl-N',2-dimethyl-6-nitro-2H-1-benzopyran-4-amidine] | 
6 nM | 10 nM | CNC(=O)C1=CC(CF)(CF)Oc2ccc([N+](=O)[O-])cc21 [Example 7, 2,2-Bis(fluoromethyl)-N-methyl-6-nitro-2H-1-benzopyran-4-carboxamide] | 0.01 mg/kg
0.28 nM | 3 nM | CNC(=S)C1=CC(CF)(CF)Oc2ccc([N+](=O)[O-])cc21 [Example 8, 2,2-Bis(fluoromethyl)-N-methyl-6-nitro-2H-1-benzopyran-4-carbothioamide] | 
14 nM | 41 nM | CN=C(NC#N)C1=CC(CF)(CF)Oc2ccc([N+](=O)[O-])cc21 [Example 9, N-Cyano-2,2-bis(fluoromethyl)-N'-methyl-6-nitro-2H-1-benzopyran-4-amidine] | 
2.1 nM | 5 nM | N#CCCNC(=O)C1=CC(CF)(CF)Oc2ccc([N+](=O)[O-])cc21 [Example 10, N-(2-cyanoethyl)-2,2-bis(fluoromethyl)-6-nitro-2H-1-benzopyran-4-carboxamide] | 
